In ChEMBL document CHEMBL5291721, “A preclinical secondary pharmacology resource illuminates target-adverse drug reaction associations of marketed drugs” (Nat Commun, 2023) one finds AC50 data, which are given here for 5 molecules.

The target in test [1] is T1, Alpha-2A adrenergic receptor (Homo sapiens, UniProt P08913).
T1 sequence (P08913 whole entry): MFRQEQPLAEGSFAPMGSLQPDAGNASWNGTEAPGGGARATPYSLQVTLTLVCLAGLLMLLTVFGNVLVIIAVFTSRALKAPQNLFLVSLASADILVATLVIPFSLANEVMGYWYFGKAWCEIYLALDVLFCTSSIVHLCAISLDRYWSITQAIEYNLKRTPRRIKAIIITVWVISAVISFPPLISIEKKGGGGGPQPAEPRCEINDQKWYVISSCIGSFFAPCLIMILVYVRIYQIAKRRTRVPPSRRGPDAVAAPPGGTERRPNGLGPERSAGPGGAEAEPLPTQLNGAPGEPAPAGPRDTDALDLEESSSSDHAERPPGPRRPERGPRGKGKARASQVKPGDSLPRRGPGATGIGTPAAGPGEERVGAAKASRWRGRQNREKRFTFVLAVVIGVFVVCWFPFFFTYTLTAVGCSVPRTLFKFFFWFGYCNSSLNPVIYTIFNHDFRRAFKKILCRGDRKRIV
In kind it is functional, cell-based.

Test [2] addresses T2, 5-hydroxytryptamine receptor 1A (Homo sapiens, UniProt P08908).
T2 sequence (P08908 whole entry): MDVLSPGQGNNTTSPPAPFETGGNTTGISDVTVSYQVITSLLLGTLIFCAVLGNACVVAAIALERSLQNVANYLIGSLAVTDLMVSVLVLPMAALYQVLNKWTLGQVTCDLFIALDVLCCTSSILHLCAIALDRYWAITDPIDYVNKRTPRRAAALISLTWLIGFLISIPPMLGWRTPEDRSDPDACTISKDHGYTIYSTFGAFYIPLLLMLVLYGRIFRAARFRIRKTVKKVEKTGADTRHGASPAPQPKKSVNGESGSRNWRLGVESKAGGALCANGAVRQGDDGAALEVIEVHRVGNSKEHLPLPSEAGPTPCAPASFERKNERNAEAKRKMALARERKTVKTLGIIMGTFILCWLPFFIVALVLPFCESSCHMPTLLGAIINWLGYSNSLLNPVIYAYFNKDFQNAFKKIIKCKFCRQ
Format: functional, cell-based.

In a further test the target is T3, Thromboxane A2 receptor (Homo sapiens, UniProt P21731).
T3 sequence (P21731 whole entry): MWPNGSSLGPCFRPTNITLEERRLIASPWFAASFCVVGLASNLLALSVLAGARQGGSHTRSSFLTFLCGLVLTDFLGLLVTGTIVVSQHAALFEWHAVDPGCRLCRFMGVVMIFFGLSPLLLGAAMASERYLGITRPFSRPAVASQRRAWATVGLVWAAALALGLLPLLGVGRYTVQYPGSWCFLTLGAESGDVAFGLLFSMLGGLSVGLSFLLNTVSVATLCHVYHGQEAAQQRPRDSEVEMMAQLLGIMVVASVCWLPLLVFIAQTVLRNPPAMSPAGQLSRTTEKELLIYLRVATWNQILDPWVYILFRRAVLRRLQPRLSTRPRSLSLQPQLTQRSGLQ

The target of test [3] is Beta-2 adrenergic receptor (Homo sapiens, UniProt P07550). In kind it is functional, cell-based.
Beta-2 adrenergic receptor, sequence (P07550 whole entry): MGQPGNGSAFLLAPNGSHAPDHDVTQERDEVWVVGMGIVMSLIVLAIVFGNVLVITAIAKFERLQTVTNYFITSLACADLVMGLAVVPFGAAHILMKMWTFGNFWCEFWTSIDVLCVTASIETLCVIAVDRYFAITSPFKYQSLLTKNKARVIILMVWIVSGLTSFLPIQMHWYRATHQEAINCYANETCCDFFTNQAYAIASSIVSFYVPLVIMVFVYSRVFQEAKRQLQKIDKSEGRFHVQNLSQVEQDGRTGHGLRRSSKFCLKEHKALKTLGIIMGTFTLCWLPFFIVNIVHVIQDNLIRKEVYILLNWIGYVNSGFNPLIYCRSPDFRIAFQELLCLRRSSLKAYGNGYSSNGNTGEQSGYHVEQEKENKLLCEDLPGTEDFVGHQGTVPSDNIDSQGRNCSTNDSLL
A further test deals with Melanocortin receptor 3 (Homo sapiens, UniProt P41968).
Melanocortin receptor 3, sequence (P41968 whole entry): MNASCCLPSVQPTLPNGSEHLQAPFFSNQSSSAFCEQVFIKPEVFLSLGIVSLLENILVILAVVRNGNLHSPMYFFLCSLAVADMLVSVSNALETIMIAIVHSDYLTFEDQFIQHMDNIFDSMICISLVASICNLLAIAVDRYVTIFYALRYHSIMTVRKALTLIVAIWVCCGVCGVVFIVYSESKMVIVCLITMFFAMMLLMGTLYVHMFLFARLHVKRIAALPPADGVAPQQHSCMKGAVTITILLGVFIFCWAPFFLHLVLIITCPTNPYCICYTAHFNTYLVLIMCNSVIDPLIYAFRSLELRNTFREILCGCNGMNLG
In test [4] the target is Sodium-dependent dopamine transporter (Homo sapiens, UniProt Q01959).
Sodium-dependent dopamine transporter, sequence (Q01959 whole entry): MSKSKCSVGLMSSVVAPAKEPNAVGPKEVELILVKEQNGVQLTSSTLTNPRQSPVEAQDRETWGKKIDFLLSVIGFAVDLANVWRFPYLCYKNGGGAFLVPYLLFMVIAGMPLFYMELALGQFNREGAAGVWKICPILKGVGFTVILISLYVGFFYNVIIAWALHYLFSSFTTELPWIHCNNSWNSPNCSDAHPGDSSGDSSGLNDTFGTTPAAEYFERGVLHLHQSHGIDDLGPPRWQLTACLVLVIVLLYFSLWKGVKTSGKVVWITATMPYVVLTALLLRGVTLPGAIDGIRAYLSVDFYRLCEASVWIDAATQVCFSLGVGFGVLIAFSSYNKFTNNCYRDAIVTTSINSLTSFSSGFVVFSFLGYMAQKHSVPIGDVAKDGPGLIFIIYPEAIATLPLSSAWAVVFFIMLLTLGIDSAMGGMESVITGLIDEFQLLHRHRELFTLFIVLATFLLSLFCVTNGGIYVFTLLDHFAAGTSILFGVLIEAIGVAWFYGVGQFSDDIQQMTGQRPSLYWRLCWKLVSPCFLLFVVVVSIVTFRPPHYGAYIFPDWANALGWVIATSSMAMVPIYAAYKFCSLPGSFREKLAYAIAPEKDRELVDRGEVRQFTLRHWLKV
Test [5] addresses Sodium-dependent noradrenaline transporter (Homo sapiens, UniProt P23975).
Test [6] deals with T4, 5-hydroxytryptamine receptor 3A (Homo sapiens, UniProt P46098).
T4 sequence (P46098 whole entry): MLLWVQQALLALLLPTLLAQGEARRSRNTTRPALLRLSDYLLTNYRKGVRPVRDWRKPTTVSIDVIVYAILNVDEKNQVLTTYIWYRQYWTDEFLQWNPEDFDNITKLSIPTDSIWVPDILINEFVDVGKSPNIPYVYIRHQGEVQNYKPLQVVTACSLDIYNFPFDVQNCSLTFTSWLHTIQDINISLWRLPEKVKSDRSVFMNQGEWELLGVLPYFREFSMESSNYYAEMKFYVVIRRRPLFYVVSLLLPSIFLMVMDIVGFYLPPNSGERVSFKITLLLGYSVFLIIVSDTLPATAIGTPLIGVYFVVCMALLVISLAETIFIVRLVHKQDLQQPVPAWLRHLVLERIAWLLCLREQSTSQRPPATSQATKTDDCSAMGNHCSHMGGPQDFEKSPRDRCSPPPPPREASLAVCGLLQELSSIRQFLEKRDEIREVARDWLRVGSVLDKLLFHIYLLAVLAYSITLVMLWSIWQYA
Format: functional.

The target in test [7] is T5, Alpha-1A adrenergic receptor (Homo sapiens, UniProt P35348).
T5 sequence (P35348 whole entry): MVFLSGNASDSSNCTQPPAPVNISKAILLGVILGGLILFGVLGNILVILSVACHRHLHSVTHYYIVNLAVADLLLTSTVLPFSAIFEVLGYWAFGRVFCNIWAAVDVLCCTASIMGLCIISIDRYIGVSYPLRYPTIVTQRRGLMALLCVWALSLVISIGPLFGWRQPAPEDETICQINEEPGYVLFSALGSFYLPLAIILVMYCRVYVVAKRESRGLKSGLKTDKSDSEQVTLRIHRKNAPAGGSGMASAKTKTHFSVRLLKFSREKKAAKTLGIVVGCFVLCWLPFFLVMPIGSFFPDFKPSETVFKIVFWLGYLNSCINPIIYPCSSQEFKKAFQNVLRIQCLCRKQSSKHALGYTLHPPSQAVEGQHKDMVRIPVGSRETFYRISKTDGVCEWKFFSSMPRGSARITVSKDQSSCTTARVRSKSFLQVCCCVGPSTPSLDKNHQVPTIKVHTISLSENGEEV
In kind it is functional, cell-based.

Where only a bound is given, the exact number is not on record here.
Note: assay procedure not described here.

Sodium-dependent noradrenaline transporter, sequence (P23975 whole entry): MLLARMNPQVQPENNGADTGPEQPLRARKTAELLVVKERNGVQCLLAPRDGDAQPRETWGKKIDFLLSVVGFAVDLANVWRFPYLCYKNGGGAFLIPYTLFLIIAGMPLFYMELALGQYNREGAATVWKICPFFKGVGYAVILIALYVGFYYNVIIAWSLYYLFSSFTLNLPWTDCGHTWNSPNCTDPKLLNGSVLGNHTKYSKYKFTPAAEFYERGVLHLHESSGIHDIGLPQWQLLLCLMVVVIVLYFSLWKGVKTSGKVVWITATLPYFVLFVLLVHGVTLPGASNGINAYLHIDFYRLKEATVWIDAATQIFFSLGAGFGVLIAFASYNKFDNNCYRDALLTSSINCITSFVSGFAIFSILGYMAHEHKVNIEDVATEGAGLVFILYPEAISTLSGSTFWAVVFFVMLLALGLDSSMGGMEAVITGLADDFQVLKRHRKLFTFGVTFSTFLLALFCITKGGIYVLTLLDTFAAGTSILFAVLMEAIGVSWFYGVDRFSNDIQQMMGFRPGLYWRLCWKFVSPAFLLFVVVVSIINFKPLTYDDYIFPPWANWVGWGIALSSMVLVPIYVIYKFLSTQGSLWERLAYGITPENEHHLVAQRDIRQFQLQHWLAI

By AC50 is commonly meant the midpoint of the concentration-response curve, whichever way the signal moves. For the molecule `O=C(O)Cc1ccccc1Nc1c(Cl)cccc1Cl` [DICLOFENAC], the half-maximal activity concentration (AC50) is more than 10 µM in test [1]; more than 10 µM in test [2]; more than 30 µM on Thromboxane A2 receptor; more than 30 µM in [3]; more than 30 µM at Melanocortin receptor 3; more than 30 µM in test [4]. The results for the AC50 in test [5], in test [6] and in test [7] were more than 30 µM, more than 10 µM and more than 30 µM, respectively.
In the case of `O=C(O)Cc1ccccc1Oc1ccc(Cl)cc1Cl` [FENCLOFENAC], the AC50 in test [1] is more than 10 µM; in test [2] it was more than 10 µM; on Thromboxane A2 receptor, more than 30 µM; in test [3], more than 30 µM; on Melanocortin receptor 3, more than 30 µM; in [4] it was more than 10 µM. Also, the AC50 was more than 10 µM in test [5], more than 30 µM in [6] and more than 30 µM in test [7].
As for `Cc1ccc(C)c(OCCCC(C)(C)C(=O)O)c1` [GEMFIBROZIL], the AC50 in test [1] was more than 10 µM; in [2], more than 10 µM; at Thromboxane A2 receptor it was more than 30 µM; in [3] it was more than 30 µM; at Melanocortin receptor 3 it was more than 30 µM; in [4], more than 10 µM. The AC50 in test [5] is more than 10 µM; in [6] it was more than 30 µM; in test [7], more than 30 µM.
Take `CC(C)C[C@H](NC(=O)[C@@H](O)[C@H](N)Cc1ccccc1)C(=O)O` [UBENIMEX]: the concentration at half-maximal activity (AC50) (in test [1]; in test [2]; on Thromboxane A2 receptor; in [3]; on Melanocortin receptor 3; in test [4]) was more than 30 µM each time. The AC50 in test [5], in test [6] and in test [7] was more than 30 µM each time.
For `CC(C)[C@H](N)C(=O)OCCOCn1cnc2c(=O)[nH]c(N)nc21` [VALACYCLOVIR], the AC50 is more than 10 µM in test [1]; more than 10 µM in test [2]; more than 30 µM on Thromboxane A2 receptor; more than 30 µM in test [3]; more than 30 µM on Melanocortin receptor 3; more than 10 µM in test [4]. Further, the half-maximal activity concentration (AC50) in test [5] was more than 10 µM; in test [6], more than 30 µM; in test [7], more than 30 µM.
